Source: patent US20240041042A1, “1-(PYRIDYL)-5-AZINYLPYRAZOLE DERIVATIVES, AND THEIR USE FOR CONTROL OF UNDESIRED PLANT GROWTH” (Bayer Aktiengesellschaft, priority 2020, published 2024)

Key:
Assay type in all cases: in vivo
Oryza sativa (ORYSA) = conditions: crop plant compatibility, 80 g/ha, effect in comparison to untreated controls
Procedure, shortened: (§1)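 One-leaf-stage crops (2–3 wk post-sowing, sandy loam, greenhouse) sprayed on green parts; 0.5% additive, 600 l/ha water. Rated by eye ~3 wk later, % vs untreated; suffixes a/b/c mark different dosages.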

Zea mays (ZEAMX) [1] = conditions: crop plant compatibility, 80 g/ha, effect vs untreated controls
Procedure, shortened: as §1

[2] = tested on: Abutilon theophrasti (ABUTH); test: Pre-emergence herbicidal action against ABUTH; conditions: Dosage column 320 g/ha (title prints 3200 g/ha); scored visually after about 3 weeks; 100% = plants have died
Procedure, shortened: (§2)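 Herbicide applied to soil before seedling emergence, at 600 l/ha spray volume with 0.5% additive and rates up to 320 g/ha. Evaluation: visual percentage effect, about 3 weeks later, greenhouse-grown pots compared with untreated ones.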

[3] = tested on: Amaranthus retroflexus (AMARE); test: Post-emergence herbicidal action against AMARE
Procedure, shortened: (§3)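 Doses of 320 g/ha or lower, suffixes a, b and c marking different dosages, were applied post-emergence at the one-leaf stage in 600 l/ha water with 0.5% additive. Damage was assessed visually after about 3 weeks in the greenhouse.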

Setaria viridis (SETVI) [4] = test: Pre-emergence herbicidal action against SETVI; conditions: dosage 320 g/ha
Procedure, shortened: as §2

Setaria viridis (SETVI) [5] = test: Post-emergence herbicidal action against SETVI; conditions: dosage 320 g/ha
Procedure, shortened: as §3

[6] = tested on: Alopecurus myosuroides (ALOMY); test: Post-emergence herbicidal action against ALOMY; conditions: visual rating about 3 weeks after treatment vs untreated controls (100% = plants have died, 0% = like control plants)
Procedure, shortened: as §3

[7] = tested on: Verconica persica (VERPE); test: Pre-emergence herbicidal action against VERPE; conditions: dosage 320 g/ha
Procedure, shortened: as §2

[8] = tested on: Echinochloa crus-galli (ECHCG); test: Pre-emergence herbicidal action against ECHCG
Procedure, shortened: as §2

[9] = tested on: Amaranthus retroflexus (AMARE); test: Pre-emergence herbicidal action against AMARE; conditions: visual scoring after about 3 weeks vs untreated controls
Procedure, shortened: as §2

[10] = tested on: Polygonum convolvulus (POLCO); test: Post-emergence herbicidal action against POLCO
Procedure, shortened: as §3

[11] = tested on: Verconica persica (VERPE); test: Post-emergence herbicidal action against VERPE
Procedure, shortened: as §3

[12] = tested on: Pharbitis purpurea (PHBPU); test: Post-emergence herbicidal action against PHBPU
Procedure, shortened: as §3

Avena fatua (AVEFA) [13] = test: Pre-emergence herbicidal action against AVEFA; conditions: 320 g/ha, visual scoring after about 3 weeks vs untreated controls
Procedure, shortened: as §2

Avena fatua (AVEFA) [14] = test: Post-emergence herbicidal action against AVEFA; conditions: 320 g/ha, visual rating about 3 weeks after treatment
Procedure, shortened: as §3

[15] = tested on: Abutilon theophrasti (ABUTH); test: Post-emergence herbicidal action against ABUTH; conditions: visual rating about 3 weeks after treatment vs untreated controls (100% = plants have died, 0% = like control plants)
Procedure, shortened: as §3

Lolium rigidum (LOLRI) [16] = test: Pre-emergence herbicidal action against LOLRI; conditions: dosage 320 g/ha
Procedure, shortened: as §2

[17] = tested on: Polygonum convolvulus (POLCO); test: Pre-emergence herbicidal action against POLCO
Procedure, shortened: as §2

[18] = tested on: Echinochloa crus-galli (ECHCG); test: Post-emergence herbicidal action against ECHCG
Procedure, shortened: as §3

[19] = tested on: Matricaria inodora (MATIN); test: Pre-emergence herbicidal action against MATIN
Procedure, shortened: as §2

Viola tricolor (VIOTR) [20] = test: Pre-emergence herbicidal action against VIOTR
Procedure, shortened: as §2

Viola tricolor (VIOTR) [21] = test: Post-emergence herbicidal action against VIOTR; conditions: 320 g/ha
Procedure, shortened: as §3

[22] = tested on: Pharbitis purpurea (PHBPU); test: Pre-emergence herbicidal action against PHBPU
Procedure, shortened: as §2

[23] = tested on: Alopecurus myosuroides (ALOMY); test: Pre-emergence herbicidal action against ALOMY; conditions: scored visually after about 3 weeks, 100% = plants have died
Procedure, shortened: as §2

Lolium rigidum (LOLRI) [24] = test: Post-emergence herbicidal action against LOLRI; conditions: dosage 320 g/ha
Procedure, shortened: as §3

Zea mays (ZEAMX) [25] = conditions: pre-emergence, 80 g/ha, crop plant compatibility, in comparison to untreated controls
Procedure, shortened: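 Scoring: visual, % of untreated control, about 3 weeks after a pre-emergence application to the soil surface. Application used WP or EC formulations diluted in water with 0.5% additive at 600 l/ha; dosage levels are marked by suffixes a, b and c.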

CCOC(=O)COc1nn(-c2nc(F)ccc2F)c(-c2ccc(F)nc2)c1Cl [Example I-315]
90%: Post-emergence action against ALOMY in % ([6]; 320 g/ha) | Pre-emergence action against ECHCG in % ([8]; dosage 80 g/ha) | Pre-emergence action against AMARE in % ([9]; 80 g/ha) | Pre-emergence action against AMARE in % ([9]; 320 g/ha) | Post-emergence action against VERPE in % ([11]; 320 g/ha, VERPE) | Pre-emergence action against AVEFA in % (Avena fatua (AVEFA) [13]) | Pre-emergence action against POLCO in % ([17]; dosage 320 g/ha) | Post-emergence action against ECHCG in % ([18]; dosage 80 g/ha) | Pre-emergence action against MATIN in % ([19]; dosage 320 g/ha) | Pre-emergence action against VIOTR in % (Viola tricolor (VIOTR) [20]; dosage 80 g/ha) | Pre-emergence action against PHBPU in % ([22]; dosage 80 g/ha) | Pre-emergence action against PHBPU in % ([22]; dosage 320 g/ha) | Post-emergence action against LOLRI in % (Lolium rigidum (LOLRI) [24])
20%: Post-emergence action against ORYSA in % (Oryza sativa (ORYSA)) | Post-emergence action against ZEAMX in % (Zea mays (ZEAMX) [1])
80%: Pre-emergence action against ABUTH [2] | Post-emergence action against AMARE in % ([3]; 80 g/ha, visual rating about 3 weeks after treatment vs untreated controls (100% = plants have died, 0% = like control plants)) | Post-emergence action against AMARE in % ([3]; 320 g/ha, visual rating about 3 weeks after treatment) | Post-emergence action against SETVI in % (Setaria viridis (SETVI) [5]) | Post-emergence action against ALOMY in % ([6]; 80 g/ha) | Post-emergence action against POLCO in % ([10]; dosage 80 g/ha) | Post-emergence action against POLCO in % ([10]; dosage 320 g/ha) | Post-emergence action against VERPE in % ([11]; dosage 80 g/ha) | Post-emergence action against PHBPU in % ([12]; dosage 80 g/ha) | Post-emergence action against PHBPU in % ([12]; dosage 320 g/ha) | Post-emergence action against AVEFA in % (Avena fatua (AVEFA) [14]) | Post-emergence action against ABUTH in % ([15]; 80 g/ha) | Post-emergence action against ABUTH in % ([15]; 320 g/ha) | Pre-emergence action against POLCO in % ([17]; dosage 80 g/ha) | Pre-emergence action against MATIN in % ([19]; dosage 80 g/ha) | Post-emergence action against VIOTR in % (Viola tricolor (VIOTR) [21])
100%: Pre-emergence action against SETVI in % (Setaria viridis (SETVI) [4]) | Pre-emergence action against VERPE in % [7] | Pre-emergence action against ECHCG in % ([8]; dosage 320 g/ha) | Pre-emergence action against LOLRI in % (Lolium rigidum (LOLRI) [16]) | Post-emergence action against ECHCG in % ([18]; dosage 320 g/ha) | Pre-emergence action against VIOTR in % (Viola tricolor (VIOTR) [20]; 320 g/ha, Viola tricolor) | Pre-emergence action against ALOMY ([23]; 80 g/ha) | Pre-emergence action against ALOMY ([23]; 320 g/ha)
10%: Pre-emergence action against ZEAMX in % (Zea mays (ZEAMX) [25])
